Key:
[1] = biological target: T1, human DNA topoisomerase I (Homo sapiens, UniProt P11387); assay: DNA relaxation assay, agarose gel; format: biochemical
T1 sequence (P11387 2-765): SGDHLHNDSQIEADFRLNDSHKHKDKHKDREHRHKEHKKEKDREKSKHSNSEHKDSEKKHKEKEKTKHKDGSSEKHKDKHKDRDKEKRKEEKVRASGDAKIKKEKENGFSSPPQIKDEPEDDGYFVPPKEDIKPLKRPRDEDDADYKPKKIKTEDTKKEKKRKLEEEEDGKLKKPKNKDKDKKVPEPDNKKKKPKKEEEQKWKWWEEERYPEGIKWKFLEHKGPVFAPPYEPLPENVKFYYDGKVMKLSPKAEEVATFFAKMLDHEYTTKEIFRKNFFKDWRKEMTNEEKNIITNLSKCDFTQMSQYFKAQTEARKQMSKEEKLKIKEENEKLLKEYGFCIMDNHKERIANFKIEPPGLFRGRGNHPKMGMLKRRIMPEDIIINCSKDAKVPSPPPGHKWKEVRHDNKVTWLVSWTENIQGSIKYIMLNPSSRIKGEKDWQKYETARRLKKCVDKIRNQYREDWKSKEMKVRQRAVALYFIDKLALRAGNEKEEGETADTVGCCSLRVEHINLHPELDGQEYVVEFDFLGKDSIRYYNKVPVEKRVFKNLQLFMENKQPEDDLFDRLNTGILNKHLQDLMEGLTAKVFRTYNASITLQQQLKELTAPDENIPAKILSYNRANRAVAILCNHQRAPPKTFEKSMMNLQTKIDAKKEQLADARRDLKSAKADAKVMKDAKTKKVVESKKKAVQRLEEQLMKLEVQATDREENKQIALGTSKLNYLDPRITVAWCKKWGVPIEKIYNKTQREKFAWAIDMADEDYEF

[2] = biological target: human DNA topoisomerase II alpha (Homo sapiens, UniProt P11388); assay: DNA relaxation assay, agarose gel; format: biochemical
Sequence of human DNA topoisomerase II alpha (P11388 whole entry): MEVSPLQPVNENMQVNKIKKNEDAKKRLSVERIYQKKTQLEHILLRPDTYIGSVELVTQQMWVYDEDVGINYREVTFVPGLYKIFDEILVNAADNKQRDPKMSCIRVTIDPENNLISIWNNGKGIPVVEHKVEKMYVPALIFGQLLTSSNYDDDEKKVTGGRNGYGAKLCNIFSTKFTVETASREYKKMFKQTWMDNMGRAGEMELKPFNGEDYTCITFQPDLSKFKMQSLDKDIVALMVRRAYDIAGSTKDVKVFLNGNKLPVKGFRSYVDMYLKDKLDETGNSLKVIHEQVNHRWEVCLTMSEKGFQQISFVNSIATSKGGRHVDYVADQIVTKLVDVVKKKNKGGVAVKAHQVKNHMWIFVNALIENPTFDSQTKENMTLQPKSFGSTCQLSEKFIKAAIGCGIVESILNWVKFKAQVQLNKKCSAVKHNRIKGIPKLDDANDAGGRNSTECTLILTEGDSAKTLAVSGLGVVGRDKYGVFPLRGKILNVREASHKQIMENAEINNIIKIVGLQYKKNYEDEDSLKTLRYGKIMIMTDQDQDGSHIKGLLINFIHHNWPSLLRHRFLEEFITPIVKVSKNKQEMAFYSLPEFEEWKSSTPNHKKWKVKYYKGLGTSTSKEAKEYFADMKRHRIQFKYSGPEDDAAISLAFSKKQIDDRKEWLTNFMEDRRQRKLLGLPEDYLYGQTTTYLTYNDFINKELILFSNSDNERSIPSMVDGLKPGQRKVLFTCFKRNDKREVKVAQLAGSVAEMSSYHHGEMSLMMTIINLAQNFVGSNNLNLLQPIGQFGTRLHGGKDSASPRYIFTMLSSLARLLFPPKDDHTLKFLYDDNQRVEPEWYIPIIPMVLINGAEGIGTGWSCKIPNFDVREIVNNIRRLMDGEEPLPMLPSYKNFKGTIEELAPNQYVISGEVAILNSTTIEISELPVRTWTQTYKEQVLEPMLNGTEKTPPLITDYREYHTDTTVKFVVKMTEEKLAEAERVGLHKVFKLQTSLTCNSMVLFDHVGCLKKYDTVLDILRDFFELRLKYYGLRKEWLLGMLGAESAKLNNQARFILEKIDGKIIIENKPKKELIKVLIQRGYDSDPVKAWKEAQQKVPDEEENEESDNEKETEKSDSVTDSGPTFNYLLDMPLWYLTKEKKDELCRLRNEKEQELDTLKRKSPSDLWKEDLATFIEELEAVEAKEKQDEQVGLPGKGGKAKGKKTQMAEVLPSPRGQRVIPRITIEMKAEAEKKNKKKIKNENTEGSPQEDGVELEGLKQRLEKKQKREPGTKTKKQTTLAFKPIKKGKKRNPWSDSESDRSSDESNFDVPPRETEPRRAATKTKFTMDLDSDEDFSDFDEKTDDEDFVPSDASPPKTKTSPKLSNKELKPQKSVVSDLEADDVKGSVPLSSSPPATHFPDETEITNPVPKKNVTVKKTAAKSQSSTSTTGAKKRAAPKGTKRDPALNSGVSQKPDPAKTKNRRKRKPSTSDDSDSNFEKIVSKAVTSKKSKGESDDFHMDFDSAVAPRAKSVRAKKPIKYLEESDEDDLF

| SMILES | DNA relaxation assay, agarose gel (5 and 10 μM) [1] | DNA relaxation assay, agarose gel (5 and 10 μM) [2] |
| --- | --- | --- |
| CC[C@@]1(O)C(=O)OCc2c1cc1n(c2=O)Cc2cc3ccccc3nc2-1 [CPT, camptothecin] | CPT (a control for topoisomerase I inhibition) and DOX (a control for topoisomerase II inhibition) at two different concentrations |  |
| COc1cccc2c1C(=O)c1c(O)c3c(c(O)c1C2=O)C[C@@](O)(C(=O)CO)C[C@@H]3O[C@H]1C[C@H](N)[C@H](O)[C@H](C)O1 [DOX, doxorubicin] |  | These showed no DNA migration, indicating complete inhibition of the respective topoisomerase enzymes. |
